# Reference: article PMC4113009, “Dihydroisoxazole inhibitors of Anopheles gambiae seminal transglutaminase AgTG3” (Malaria Journal, 2014)
# Where two headings read alike, the source gives them in different places.
# Key:
# [1] = target: T1, AgTG3 (Anopheles gambiae, UniProt D2K8K8); experiment: biochemical; conditions: for Activity against AgTG3 in dose–response assay: up to 100 μM; for Inhibition of AgTG3 in primary screen: 100 μM, triplicate
# Experimental: Plugin-C (25 μg/well) was incubated in black 96-well Ni-coated plates (Pierce 15342) for 2 h at room temperature or overnight at 4°C. Plates were washed three times with 200 μL of TBS and loaded with 0.5 μg of AgTG3 in 50 μL TBS buffer. DHI inhibitors were added for 1 h to block the enzyme, followed by 50 μL of 2× assay buffer (2× TBS, 20 mM CaCl2, 100 μM FITC-CAD, 2 mM DTT). Wells were incubated for 60 min at room temperature, washed three times with 200 μL of TBS, and filled to a final volume of 100 μL for fluorescence measurements in a microplate reader (Biotek Synergy 2). The z-score was calculated based on the mean and standard deviation of three replicates of inhibitor compared to a DMSO control, zi=x¯DMSO-x¯i/σDMSO+σi .
# The targeted chemical library was screened for inhibition of AgTG3 at 100 μM in a FITC-CAD plate assay (Figure 3A), performed in triplicate as previously described. Hit-calling was based on >67% decrease in fluorescence compared to DMSO and z > 5. Seven compounds fulfilled these criteria in the primary assay.
# To verify the results of this preliminary assay, dose–response curves in the range of 0.5–100 μM were determined for 27 structurally related compounds within the targeted library (Additional file 3: Table S2 and Additional file 4: Table S3). […] Selected stereoisomers present in the targeted library were compared in equivalent dose–response assays. Inhibition of AgTG3 was specific for the (S)-DHI isomer of 1 (Figure 4A), the (R) isomer (4) displaying no activity (IC50 > 100 μM).
# [2] = target: T1, AgTG3; experiment: AgTG3 plugin cross-linking assay (SDS-PAGE, FITC-CAD); type: biochemical; conditions: for Inhibition of plugin-C cross-linking by AgTG3 (controls): 10 mM EDTA, 50 mM IA, 5 mM CaCl2
# Experimental: Recombinant AgTG3 was pre-incubated with 100 μM inhibitors overnight at room temperature. AgTG3, with and without pretreatment with inhibitors (1 μg), was added to plugin-C (20 μg) and 0.5 mM FITC-cadaverine (FITC-CAD) in 25 mM HEPES, pH 7.5, 10 mM CaCl2, 1 mM DTT. The reaction was incubated at room temperature for 2 h and quenched by heat denaturation of the proteins in the presence of Laemmli buffer. The extent of cross-linking was analysed by sodium dodecyl sulphate-polyacrylamide gel electrophoresis (SDS-PAGE). The gel was scanned using Alpha Imager 2200 software.
# Additional assays were performed to examine whether compounds 1 and 3 would inhibit the cross-linking of plugin-C by AgTG3 in solution, with FITC-CAD for fluorescent detection of plugin-C. Results were assessed by SDS/PAGE and UV illumination to detect FITC-CAD (Figure 7). […] In the presence of enzyme, substrate and calcium a ladder of fluorescent bands of increasing molecular weight (MW) is observed (lane 4), corresponding to cross-linked oligomers of plugin also labeled by FITC-CAD. […] However, the levels of AgTG3 in solution assays are higher in the cross-linking assay than the primary screen. The levels of plugin-C were also higher, which competes with slow-binding irreversible inhibitors such as 1 and 3 for the active site of AgTG3.
# Figure 7 Inhibition of plugin cross-linking by DHI inhibitors. Fluorescent image of SDS-PAGE for FITC-cadaverine labeling and cross-linking of plugin by AgTG3. Lanes (1–4): (1) AgTG3, (2) Plugin-C, (3) AgTG3 and plugin-C, (4) AgTG3, plugin-C, and 5 mM CaCl2. Lanes (5–8): AgTG3, plugin-C, 5 mM CaCl2 and (5) 10 mM EDTA, (6) 50 mM IA, (7) 100 μM 1, (8) 100 μM 3. (below) Coomassie stain indicating relative levels of monomeric Plugin-C.
# [3] = tested on: Drosophila; set-up: method as in PMID 22996645; conditions: delivered orally ad libitum, 10 μM in agar; cited from earlier work
# [4] = tested on: tumor model; set-up: method as in PMID 22996645; conditions: cited from earlier work
# [5] = tested on: model of human African trypanosomiasis; set-up: method as in PMID 21275056; conditions: cited from earlier work
# [6] = set-up: method as in PMID 21275056; conditions: 50 mg/kg, intraperitoneal injection; cited from earlier work
# [7] = target: T2, human caspase-1 (Homo sapiens, UniProt P29466); experiment: Cysteine protease inhibition assay, caspase-1 (Ac-YVAD-pNA); type: biochemical; conditions: 3 at 100 μM, compared to a DMSO control, chromogenic assay
# T2 construct: purchased Abcam
# T2 sequence (P29466 120-297 limits assumed): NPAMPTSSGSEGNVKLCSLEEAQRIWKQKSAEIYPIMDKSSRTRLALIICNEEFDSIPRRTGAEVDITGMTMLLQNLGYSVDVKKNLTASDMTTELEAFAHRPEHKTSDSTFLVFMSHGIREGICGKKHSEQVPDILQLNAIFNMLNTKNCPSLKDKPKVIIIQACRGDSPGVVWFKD
# T2 sequence (P29466 317-404 limits assumed): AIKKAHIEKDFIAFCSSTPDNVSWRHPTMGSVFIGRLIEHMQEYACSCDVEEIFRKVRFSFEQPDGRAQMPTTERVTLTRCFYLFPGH
# Experimental: The activity of caspase-1 was determined by use of chromogenic substrate Ac-YVAD-pNA (Enzo Life Sciences, NY, USA). The assay was performed by adding 45 μL of 1 Unit caspase-1 (Abcam, MA, USA) and 5 μL of Ac-YVAD-pNA (final concentration, 5 μM) to 50 μL assay buffer (50 mM HEPES pH 7.4, 10 mM DTT, 1 mM EDTA, 0.1% CHAPS, 20% glycerol). Substrate cleavage after 1 h incubation at 37°C was measured by […] absorbance at 400 nm in a benchtop UV/Vis spectrophotometer (UV1800, Shimadzu, Kyoto, Japan).
# (§1) Transglutaminases and cysteine proteases have a similar catalytic mechanism involving an active site cysteine and formation of a thioacyl intermediate. […] To test this hypothesis, the inhibition of two cysteine proteases, human caspase-1 and recombinant tobacco etch virus (TEV) protease by 3 at 100 μM were tested using a chromogenic and SDS-PAGE assay, respectively (Figure 9). […] Neither human caspase-1 nor TEV are endogenous proteins in A. gambiae, which may well contain other endogenous targets of 1–3, not least the two other transglutaminases in the A. gambiae genome.
# [8] = target: T3, recombinant tobacco etch virus (TEV) protease (Tobacco etch virus, UniProt P04517); experiment: Cysteine protease inhibition assay, TEV protease (GST-gp78 cleavage, SDS-PAGE); type: biochemical; conditions: 3 at 100 μM, compared to a DMSO control
# T3 construct: recombinant tobacco etch virus (TEV) protease
# T3 sequence (P04517 2038-2279): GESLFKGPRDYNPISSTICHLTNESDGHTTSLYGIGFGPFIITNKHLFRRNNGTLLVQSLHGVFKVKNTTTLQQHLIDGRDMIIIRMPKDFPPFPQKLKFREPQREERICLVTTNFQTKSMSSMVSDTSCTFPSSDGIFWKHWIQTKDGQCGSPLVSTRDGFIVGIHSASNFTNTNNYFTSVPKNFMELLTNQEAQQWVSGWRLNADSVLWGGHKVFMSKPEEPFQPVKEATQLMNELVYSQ
# Experimental: The activity of recombinant tobacco etch virus (TEV) protease was determined by cleavage of a fusion protein containing a TEV cleavage site between GST and a 17 kDa fragment of human gp78. TEV and GST-gp78 were incubated at 37°C for 10 min at a substrate:enzyme mass ratio of 10:1. The reaction was stopped by adding 3× loading buffer (150 mM Tris–HCl pH 6.8, 300 mM DTT, 6% (w/v) SDS, 0.06% (w/v) bromophenol blue, 30% (v/v) glycerol). Samples were heated at 95°C for 3 min and separated by 4–20% gradient SDS-PAGE.
# as §1
# [9] = tested on: hTG2; conditions: cited from earlier work
# [10] = dose–response, 27 dihydroisoxazole inhibitors, read-out: IC50 (Supplementary Table 3, AgTG3)
# [11] = dose–response curves in the range of 0.5–100 μM, FITC-CAD plate assay, read-out: IC50 for inhibition of AgTG3
# T1 sequence (D2K8K8 entry or part of it): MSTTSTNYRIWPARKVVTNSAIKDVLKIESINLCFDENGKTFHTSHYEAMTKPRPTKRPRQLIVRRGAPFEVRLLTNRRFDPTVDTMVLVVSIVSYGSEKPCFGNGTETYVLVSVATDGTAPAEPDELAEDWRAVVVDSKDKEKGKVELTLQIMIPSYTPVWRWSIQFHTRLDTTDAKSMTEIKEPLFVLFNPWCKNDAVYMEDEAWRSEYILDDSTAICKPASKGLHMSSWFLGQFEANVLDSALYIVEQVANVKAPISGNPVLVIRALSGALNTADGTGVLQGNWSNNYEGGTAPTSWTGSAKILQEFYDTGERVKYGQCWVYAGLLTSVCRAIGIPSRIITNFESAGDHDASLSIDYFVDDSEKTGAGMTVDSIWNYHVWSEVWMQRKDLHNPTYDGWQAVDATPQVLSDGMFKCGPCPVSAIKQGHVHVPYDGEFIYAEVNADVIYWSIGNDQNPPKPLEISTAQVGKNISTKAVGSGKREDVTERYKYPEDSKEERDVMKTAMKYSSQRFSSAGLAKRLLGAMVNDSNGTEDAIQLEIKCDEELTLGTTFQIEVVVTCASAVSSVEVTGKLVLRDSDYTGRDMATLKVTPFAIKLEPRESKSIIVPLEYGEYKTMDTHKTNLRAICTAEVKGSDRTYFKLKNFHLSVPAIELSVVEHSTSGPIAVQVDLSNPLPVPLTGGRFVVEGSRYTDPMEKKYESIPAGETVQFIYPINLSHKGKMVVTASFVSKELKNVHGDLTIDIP
smiles,measurement,setting,value
O=C(N[C@@H](Cc1cccc2ccccc12)C(=O)NC[C@@H]1CC(Br)=NO1)OCc1cnc2ccccc2c1 [Compound D86],IC50,[1]; [10],> 100 µM
O=C(N[C@H](Cc1ccccc1)C(=O)NC[C@@H]1CC(Br)=NO1)OCc1cnc2ccccc2c1 [Compound 6],IC50,[1]; [10],> 100 µM
same,Activity against AgTG3 in dose–response assay,[1],inactive
O=C(N[C@@H](Cc1c[nH]c2ccc(F)cc12)C(=O)NC[C@@H]1CC(Br)=NO1)OCc1cnc2ccccc2c1,IC50,[1]; [11],3.1 µM
same,Inhibition of plugin-C cross-linking by AgTG3,"[2]; 100 μM inhibitor, 5 mM CaCl2, intensity of high MW bands",inhibited the cross-linking of plugin
O=C(N[C@@H](Cc1ccc(O)cc1)C(=O)NC[C@@H]1CC(Br)=NO1)OCC1c2ccccc2-c2ccccc21 [Compound D73],IC50,[1]; [10],> 100 µM
C[C@@H](c1ccccc1)[C@H](NC(=O)OCc1cnc2ccccc2c1)C(=O)NC[C@@H]1CC(Br)=NO1 [Compound D94],IC50,[1]; [10],84 µM
O=C(N[C@@H](Cc1ccc(O)cc1)C(=O)NC[C@@H]1CC(Br)=NO1)OCc1ccccc1 [Compound D27],IC50,[1]; [10],> 100 µM
O=C(N[C@@H](Cc1c[nH]c2ccc(O)cc12)C(=O)NC[C@@H]1CC(Br)=NO1)OCc1cnc2ccccc2c1,IC50,[1]; [11],4.3 µM
O=C(N[C@@H](Cc1ccc(O)cc1)C(=O)NC[C@H]1CC(Br)=NO1)OCC1c2ccccc2-c2ccccc21 [Compound D71],IC50,[1]; [10],> 100 µM
"N[C@H](C(=O)O)[C@@H]1CC(Cl)=NO1 [Acivicin, acivicin]",Toxicity to Drosophila,[3],non-toxic
same,Activity in vivo in a tumor model,[4],active in vivo
O=C(N[C@@H](Cc1ccc(O)cc1)C(=O)NC[C@H]1CC(Br)=NO1)OCc1ccccc1 [Compound D26],IC50,[1]; [10],> 100 µM
CN(C(=O)OCc1cnc2ccccc2c1)[C@@H](Cc1ccccc1)C(=O)NC[C@@H]1CC(Br)=NO1 [Compound D83],IC50,[1]; [10],> 100 µM
O=C(N[C@@H](Cc1c[nH]c2ccc(F)cc12)C(=O)NC[C@@H]1CC(Br)=NO1)OCc1ccnc2ccccc12,IC50,[1]; [11],12.2 µM
same,IC50,[1]; [10],12 µM
N[C@H](C(=O)O)[C@@H]1CC(Br)=NO1 [3-bromoacivicin],Activity in vivo in a model of human African trypanosomiasis,[5],active in vivo
same,Acute toxicity in mice,[6],no acute toxicity
O=C(N[C@@H](CCc1ccccc1)C(=O)NC[C@@H]1CC(Br)=NO1)OCc1cnc2ccccc2c1 [Compound D85],IC50,[1]; [10],> 100 µM
O=C(N[C@@H](Cc1ccccc1)C(=O)NC[C@@H]1CC(Br)=NO1)OCc1cnc2ccccc2c1 [Compound 5],IC50,[1]; [11],29 µM
"O=C(O)CN(CCN(CC(=O)O)CC(=O)O)CC(=O)O [EDTA, reference compound]",Inhibition of plugin-C cross-linking by AgTG3 (controls),[2],Cross-linking is inhibited
O=C(N[C@@H](Cc1c[nH]c2ccc(F)cc12)C(=O)NC[C@H]1CC(Br)=NO1)OCc1cnc2ccccc2c1,IC50,[1]; [11],> 100 µM
[N-]=[N+]=Nc1ccc(COC(=O)N[C@@H](Cc2ccc(O)cc2)C(=O)NC[C@@H]2CC(Br)=NO2)cc1 [Compound D143],IC50,[1]; [10],> 100 µM
O=C(N[C@@H](Cc1c[nH]c2ccc(F)cc12)C(=O)NC[C@@H]1CC(Br)=NO1)OCc1cnc2ccccc2n1,IC50,[1]; [11],9.7 µM
O=C(N[C@@H](Cc1ccc(I)cc1)C(=O)NC[C@@H]1CC(Br)=NO1)OCc1cnc2ccccc2c1 [Compound 11],IC50,[1]; [10],> 100 µM
same,Activity against AgTG3 in dose–response assay,[1],inactive
CC(C)(C)OC(=O)N[C@@H](Cc1c[nH]c2ccc(F)cc12)C(=O)NC[C@@H]1CC(Br)=NO1,IC50,[1]; [11],56 µM
C#Cc1ccc(COC(=O)N[C@@H](Cc2ccc(O)cc2)C(=O)NC[C@@H]2CC(Br)=NO2)cc1 [Compound D142],IC50,[1]; [10],> 100 µM
C[C@@](Cc1ccccc1)(NC(=O)OCc1cnc2ccccc2c1)C(=O)NC[C@@H]1CC(Br)=NO1 [Compound D91],IC50,[1]; [10],> 100 µM
O=C(N[C@@H](Cc1ccc(O)cc1)C(=O)NC[C@H]1CC(Br)=NO1)OCc1cnc2ccccc2c1 [Compound D62],IC50,[1]; [10],> 100 µM
O=C(N[C@@H](Cc1ccc(-c2ccccc2)cc1)C(=O)NC[C@@H]1CC(Br)=NO1)OCc1cnc2ccccc2c1 [Compound D84],IC50,[1]; [10],> 100 µM
O=C(N[C@@H](Cc1ccccc1F)C(=O)NC[C@@H]1CC(Br)=NO1)OCc1cnc2ccccc2c1 [Compound 8],IC50,[1]; [11],~30 µM
same,IC50,[1]; [10],28 µM
O=C(N[C@@H](Cc1csc2ccccc12)C(=O)NC[C@@H]1CC(Br)=NO1)OCc1cnc2ccccc2c1,IC50,[1]; [10],18 µM
"NC(=O)CI [IA, iodoacetamide, reference compound]",Inhibition of caspase-1,[7],potent inhibitor of the enzyme
same,Inhibition of plugin-C cross-linking by AgTG3 (controls),[2],Cross-linking is inhibited
same,Inhibition of TEV protease,[8],potent inhibitor of the enzyme
"NNC(=O)CSc1nc2scc(-c3ccccc3)c2c(=O)n1-c1ccccc1 [LDN-27219, reference compound]",Inhibition of AgTG3 in primary screen,[1],neither the eight acylidene oxoindoles tested nor the thienopyrimidinone LDN-27219 inhibited AgTG3
same,Inhibition of AgTG3 in primary screen,[1]; listed as LD-217912,neither acylidene oxoindoles nor the thienopyrimidinone LD-217912 showed any inhibition
same,IC50,[9],< 10 µM
